Test results reported in patent US8946290B2, “Combination of selected opioids with muscarine antagonists for treating urinary incontinence” (Gruenenthal GmbH, priority 2001, dated 2015).

System: bladder function
Assay: Cystometry on anaesthetized naive rats
Format: in vivo
Details: anaesthetized naive female rats, rate of contractions (micturition events/min)
Method: The cystometric investigation on naive female rats was carried out by the method of Kimura et al. (Kimura et al., 1996, Int. J. Urol. 3:218-227). The abdomen of anaesthetized, ventilated rats is opened up and the ureter is ligated. The urine is drained from the kidneys. A catheter is inserted into the bladder and fixed. […] After stable starting values are reached, the test substance is administered intravenously. An influence on bladder function manifests itself via suppression of the spontaneous contractions.
In the present example, compound A ((+)-(2R,3R)-1-dimethylamino-3-(3-methoxy-phenyl)-2-methyl-pentan-3-ol; hydrochloride) in the dosage of 0.1 mg/kg intravenous was combined with compound B (oxybutynin) in the dosage of 0.03 mg/kg intravenous and the action of this combination was compared with that of the individual substances.

SMILES	Inhibition of the rate of contractions compared with the pretest (0.1 mg/kg i.v.) [% MPE]	Inhibition of the rate of contractions compared with the pretest (0.03 mg/kg i.v.) [% MPE]
CC[C@](O)(c1cccc(OC)c1)[C@H](C)CN(C)C.Cl [Compound A, (+)-(2R,3R)-1-dimethylamino-3-(3-methoxy-phenyl)-2-methyl-pentan-3-ol; hydrochloride]	21.7	–
CCN(CC)CC#CCOC(=O)C(O)(c1ccccc1)C1CCCCC1 (centres unmarked) [Compound B, oxybutynin]	–	10.7
